Measurements taken from patent US11964949B2, “Substituted phenyloxazolidinones for antimicrobial therapy” (priority 2015, dated 2024).
Converted amounts (≈) assume the structure as drawn.

System: Mycobacterium tuberculosis H37Rv
Test: In vitro assay for antimicrobial susceptibility (microplate Alamar blue, MIC)
Type: cell-based
Details: M. tuberculosis H37Rv, 7H9 broth, Alamar blue

Molecule	MIC (μg/mL) against H37Rv
(R)-5-((1H-1,2,3-Triazol-1-yl)methyl)-3-(3-fluoro-4-(2-oxa-6-azaspiro[3.3]heptan-6-yl)phenyl)oxazolidin-2-one [OTB-203]	>32 µg/mL

Same assay, conditions: Mycobacterium tuberculosis, H37RV, read-out: MIC (μg/mL) against H37Rv

Molecule	MIC
O=C1O[C@@H](Cn2cncn2)CN1c1ccc(N2[C@@H]3CC[C@H]2C[S+]([O-])C3)c(F)c1 (stereo partly drawn) [OBD-018, (5R)-5-((1H-1,2,4-Triazol-1-yl)methyl)-3-(3-fluoro-4-((1R,5S)-3-oxido-3-thia-8-azabicyclo[3.2.1]octan-8-yl)phenyl)oxazolidin-2-one]	> 32 µg/mL
O=C1O[C@@H](Cn2cncn2)CN1c1ccc(N2C3CCC2CSC3)c(F)c1 [OBD-021, (5R)-5-((1H-1,2,4-triazol-1-yl)methyl)-3-(4-(3-thia-8-aza-bicyclo[3.2.1]octan-8-yl)-3-fluorophenyl)oxazolidin-2-one]	27.5 µg/mL (≈ 70.5 µM)
CC(=O)NC[C@H]1CN(c2cc(F)c(N3CCCSCCC3)c(F)c2)C(=O)O1 [OBD-027]	0.3 µg/mL (≈ 0.751 µM)
CS(=O)(=O)NC[C@H]1CN(c2ccc(N3[C@@H]4CC[C@H]3CSC4)c(F)c2)C(=O)O1 [OTB-236, N—(((R)-3-(4-((1R,5S)-3-Thia-8-azabicyclo[3.2.1]octan-8-yl)-3-fluorophenyl)-2-oxo-oxazolidin-5-yl)methyl)methanesulfonamide]	14.3 µg/mL (≈ 34.3 µM)
O=C1O[C@@H](CO)CN1c1ccc(N2[C@@H]3CC[C@H]2CSC3)c(F)c1 [OTB-501, (R)-3-(4-((1R,5S)-3-Thia-8-azabicyclo[3.2.1]octan-8-yl)-3-fluorophenyl)-5-(hydroxymethyl)oxazolidin-2-one]	4.5 µg/mL (≈ 13.3 µM)
CC(=O)NC[C@H]1CN(c2ccc(N3[C@@H]4CC[C@H]3C[S+]([O-])C4)c(F)c2)C(=O)O1 (stereo partly drawn) [OTB-503, N-(((5S)-3-(3-Fluoro-4-((1R,5S)-3-oxido-3-thia-8-azabicyclo[3.2.1]octan-8-yl)phenyl)-2-oxo-oxazolidin-5-yl)methyl)acetamide]	0.2 to 1.3 µg/mL (≈ 0.506 to 3.29 µM)
O=C1O[C@@H](Cn2ccnn2)CN1c1ccc(N2[C@@H]3CC[C@H]2CSC3)c(F)c1 [OTB-504, (R)-5-((1H-1,2,3-Triazol-1-yl)methyl)-3-(4-((1R,5S)-3-thia-8-azabicyclo[3.2.1]octan-8-yl)-3-fluorophenyl)oxazolidin-2-one]	0.5 to 0.7 µg/mL (≈ 1.28 to 1.8 µM)
O=C1O[C@@H](Cn2ccnn2)CN1c1ccc(N2[C@@H]3CC[C@H]2C[S+]([O-])C3)c(F)c1 (stereo partly drawn) [OTB-505, (5R)-5-((1H-1,2,3-Triazol-1-yl)methyl)-3-(3-fluoro-4-((1R,5S)-3-oxido-3-thia-8-azabicyclo[3.2.1]octan-8-yl)phenyl)oxazolidin-2-one]	1.8 to 3.5 µg/mL (≈ 4.44 to 8.63 µM)
O=C1O[C@@H](Cn2ccnn2)CN1c1cc(F)c(N2[C@@H]3CC[C@H]2CSC3)c(F)c1 [OTB-511, (R)-5-((1H-1,2,3-Triazol-1-yl)methyl)-3-(4-((1R,5S)-3-thia-8-azabicyclo[3.2.1]octan-8-yl)-3,5-difluorophenyl)oxazolidin-2-one]	0.06 to 0.2 µg/mL (≈ 0.147 to 0.491 µM)

Same assay, conditions: Mycobacterium tuberculosis; M. tuberculosis H37Rv, 7H9 broth, Alamar blue; read-out: MIC (μg/mL) against H37Rv

Molecule	MIC
O=C1O[C@@H](Cn2ccnn2)CN1c1ccc(N2CCCSCCC2)c(F)c1 [OBD-001, (R)-5-((1H-1,2,3-triazol-1-yl)methyl)-3-(3-fluoro-4-(1,5-thiazocan-5-yl)phenyl)oxazolidin-2-one]	0.3 µg/mL (≈ 0.766 µM)
O=C1O[C@@H](Cn2ccnn2)CN1c1ccc(N2CCC[S+]([O-])CCC2)c(F)c1 [OBD-002, (R)-5-((1H-1,2,3-Triazol-1-yl)methyl)-3-(3-fluoro-4-(1-oxido-1,5-thiazocan-5-yl)phenyl)oxazolidin-2-one]	1.6 µg/mL (≈ 3.93 µM)
CCCC(=O)NC[C@H]1CN(c2cc(F)c(N3CCCSCCC3)c(F)c2)C(=O)O1 [OBD-026, (S)—N-((3-(3,5-difluoro-4-(1,5-thiazocan-5-yl)phenyl)-2-oxooxazolidin-5-yl)methyl) butyramide]	0.4 µg/mL (≈ 0.936 µM)
COC(=O)NC[C@H]1CN(c2cc(F)c(N3CC4CCC(C3)O4)c(F)c2)C(=O)O1 [OBD-049]	0.25 to 1 µg/mL (≈ 0.629 to 2.52 µM)
NC[C@H]1CN(c2cc(F)c(N3CC4(COC4)C3)c(F)c2)C(=O)O1 [OBD-062]	0.1 to 0.25 µg/mL (≈ 0.307 to 0.768 µM)
CNC[C@H]1CN(c2ccc(N3CCCSCC3)c(F)c2)C(=O)O1 [OTB-109, (S)-3-[3-Fluoro-4-(1,4-thiazepan-4-yl)phenyl]-5-[(methylamino)methyl]oxazolidin-2-one]	32 µg/mL (≈ 94.3 µM)
O=C(NC[C@H]1CN(c2ccc(N3CCCSCCC3)c(F)c2)C(=O)O1)c1cccs1 [OTB-118, (S)—N-[[3-(3-Fluoro-4-(1,5-thiazocan-5-yl)phenyl)-2-oxo-oxazolidin-5-yl]methyl]thiophene-2-carboxamide]	1.55 µg/mL (≈ 3.44 µM)
CC(=O)NC[C@H]1CN(c2ccc(N3CCC[S+]([O-])CCC3)c(F)c2)C(=O)O1 [OTB-124, (S)—N-[[3-(3-Fluoro-4-(1-oxido-1,5-thiazocan-5-yl)phenyl)-2-oxo-oxazolidin-5-yl]methyl]acetamide]	0.26 to 1.4 µg/mL (≈ 0.654 to 3.52 µM)
O=C1O[C@@H](CO)CN1c1ccc(N2CC3(COC3)C2)c(F)c1 [OTB-201, (R)-3-(3-Fluoro-4-(2-oxa-6-azaspiro[3.3]heptan-6-yl)phenyl)-5-(hydroxymethyl)oxazolidin-2-one]	16 µg/mL (≈ 51.9 µM)
O=C(NC[C@H]1CN(c2ccc(N3CC4(COC4)C3)c(F)c2)C(=O)O1)c1ccco1 [OTB-205, (S)—N-((3-(3-Fluoro-4-(2-oxa-6-azaspiro[3.3]heptan-6-yl)phenyl)-2-oxo-oxazolidin-5-yl)methyl)furan-2-carboxamide]	3.9 µg/mL (≈ 9.72 µM)
O=C(NC[C@H]1CN(c2ccc(N3CC4(COC4)C3)c(F)c2)C(=O)O1)c1cccs1 [OTB-206, (S)—N-((3-(3-Fluoro-4-(2-oxa-6-azaspiro[3.3]heptan-6-yl)phenyl)-2-oxo-oxazolidin-5-yl)methyl)thiophene-2-carboxamide]	2.8 µg/mL (≈ 6.71 µM)
CS(=O)(=O)NC[C@H]1CN(c2ccc(N3CC4(COC4)C3)c(F)c2)C(=O)O1 [OTB-222, (R)—N-((3-(3-Fluoro-4-(2-oxa-6-azaspiro[3.3]heptan-6-yl)phenyl)-2-oxo-oxazolidin-5-yl)methyl)methanesulfonamide]	7.4 µg/mL (≈ 19.2 µM)
COC(=O)NC[C@H]1CN(c2ccc(N3CC4(COC4)C3)c(F)c2)C(=O)O1 [OTB-223, Methyl (S)-((3-(3-fluoro-4-(2-oxa-6-azaspiro[3.3]heptan-6-yl)phenyl)-2-oxo-oxazolidin-5-yl)methyl)carbamate]	0.8 to 2.6 µg/mL (≈ 2.19 to 7.12 µM)
O=C1O[C@@H](Cn2ccnn2)CN1c1cc(F)c(N2CC3(COC3)C2)c(F)c1 [OTB-234, (R)-5-((1H-1,2,3-Triazol-1-yl)methyl)-3-(3,5-difluoro-4-(2-oxa-6-azaspiro[3.3]heptan-6-yl)phenyl)oxazolidin-2-one]	0.39 to 4 µg/mL (≈ 1.03 to 10.6 µM)
O=C(NC[C@H]1CN(c2cc(F)c(N3CC4(CSC4)C3)c(F)c2)C(=O)O1)C1CCC1 [OTB-244, (S)—N-((3-(3,5-Difluoro-4-(2-thia-6-azaspiro[3.3]heptan-6-yl)phenyl)-2-oxo-oxazolidin-5-yl)methyl)cyclobutanecarboxamide]	0.02 to 0.6 µg/mL (≈ 0.0472 to 1.42 µM)
O=C(NC[C@H]1CN(c2ccc(N3CC4(CSC4)C3)c(F)c2)C(=O)O1)C1CC1 [OTB-249]	0.06 to 0.15 µg/mL (≈ 0.153 to 0.383 µM)
O=C(NC[C@H]1CN(c2ccc(N3CC4(CSC4)C3)c(F)c2)C(=O)O1)C1CCC1 [OTB-250]	0.06 µg/mL (≈ 0.148 µM)
O=C(NC[C@H]1CN(c2ccc(N3CCCSCC3)c(F)c2)C(=O)O1)C1CCC1 [OTB-414, (S)—N-((3-(3-Fluoro-4-(1,4-thiazepan-4-yl)phenyl)-2-oxooxazolidin-5-yl)methyl)cyclobutanecarboxamide]	0.171 µg/mL (≈ 0.42 µM)

System: mitochondrial protein synthesis (MPS) in H9C2 cells
Test: In vitro assay for MPS inhibition (COX-1 / SDH-A ELISA in H9C2 cells)
Type: cell-based, rat
Details: Rattus norvegicus, 120 h; H9C2 cells, 5 days incubation; read-out: IC50 (μM) MPS inhibition

Molecule	IC50
O=C1O[C@@H](Cn2ccnn2)CN1c1ccc(N2CCCSCCC2)c(F)c1 [OBD-001, (R)-5-((1H-1,2,3-triazol-1-yl)methyl)-3-(3-fluoro-4-(1,5-thiazocan-5-yl)phenyl)oxazolidin-2-one]	12 µM
O=C1O[C@@H](Cn2ccnn2)CN1c1ccc(N2CCC[S+]([O-])CCC2)c(F)c1 [OBD-002, (R)-5-((1H-1,2,3-Triazol-1-yl)methyl)-3-(3-fluoro-4-(1-oxido-1,5-thiazocan-5-yl)phenyl)oxazolidin-2-one]	29 µM
